Drawing on patent US20220104493A1, “HERBICIDAL COMPOUNDS” (SYNGENTA CROP PROTECTION AG, priority 2019, published 2022), this text covers pest or weed control for seven compounds.

Common to all, as to experiment: Post-emergence efficacy, Method A
Holding throughout (format): in vivo

Experiment [1] concerns Euphorbia heterophylla (EPHHL). The following applies: 100=total damage to plant, 0=no damage, evaluated after 7 and 14 days, read-out: Control of weed species after post-emergence application, EPHHL.
Experiment [2] relates to Setaria faberi (SETFA). The settings on record: 100=total damage to plant, 0=no damage, evaluated after 7 and 14 days, read-out: Control of weed species after post-emergence application, SETFA.
Experiment [3] relates to Chenopodium album (CHEAL). The settings on record: 100=total damage to plant, 0=no damage, evaluated after 7 and 14 days, read-out: Control of weed species after post-emergence application, CHEAL.
Experiment [4] relates to Amaranthus palmeri (AMAPA). The following applies: 100=total damage to plant, 0=no damage, evaluated after 7 and 14 days, read-out: Control of weed species after post-emergence application, AMAPA.
For experiment [5], the system named is Ipomoea hederacea (IPOHE). The settings on record: 100=total damage to plant, 0=no damage, evaluated after 7 and 14 days, read-out: Control of weed species after post-emergence application, IPOHE.
The subject of experiment [6] is Echinochloa crus-galli (ECHCG). The settings on record: 100=total damage to plant, 0=no damage, evaluated after 7 and 14 days, read-out: Control of weed species after post-emergence application, ECHCG.
For experiment [7], the system named is Eleusine indica (ELEIN). The settings on record: 100=total damage to plant, 0=no damage, evaluated after 7 and 14 days, read-out: Control of weed species after post-emergence application, ELEIN.
The subject of experiment [8] is Digitaria sanguinalis (DIGSA). The settings on record: 100=total damage to plant, 0=no damage, evaluated after 7 and 14 days, read-out: Control of weed species after post-emergence application, DIGSA.
Experiment [9] has as its system Lolium perenne (LOLPE). The settings on record: 100=total damage to plant, 0=no damage, evaluated after 7 and 14 days, read-out: Control of weed species after post-emergence application, LOLPE.

`O=C(O)C[n+]1ccc(-c2ncns2)cc1` [Compound A6]: the pest or weed control at 500 g/ha in [1] was 100%; in experiment [2], 80%; in experiment [3] it was 100%; in [4], 100%; in experiment [5], 80%; in experiment [6], 90%. For the same compound, the figures for the pest or weed control at 500 g/ha in experiment [7], in experiment [8] and in [9] were 90%, 70% and 30%, respectively.
For `O=S(=O)([O-])CC[n+]1ccc(-c2nc(C(F)(F)F)co2)cc1` [Compound A46], the pest or weed control at 500 g/ha was determined as 0% in experiment [1]; 0% in experiment [2]; 0% in experiment [3]; 30% in experiment [4]; 0% in experiment [5]; 0% in experiment [6]. The pest or weed control at 500 g/ha in experiment [7], in experiment [8] and in experiment [9] was 0% in each case.
On to `O=C(O)CC[n+]1ccc(-c2nc(C(F)(F)F)ns2)cc1` [Compound A48, 3-[4-[3-(trifluoromethyl)-1,2,4-thiadiazol-5-yl]pyridin-1-ium-1-yl]propanoic acid acetate], for which the pest or weed control at 125 g/ha in experiment [1] (125 g/Ha) was found to be 30%; in experiment [2] (125 g/Ha), 20%; in experiment [3] (125 g/Ha) it was 10%; in experiment [4] (125 g/Ha) it was 90%; in experiment [5] (125 g/Ha), 0%; in [6] (125 g/Ha), 0%. In addition, the results for the pest or weed control at 125 g/ha in experiment [7] (125 g/Ha), in experiment [8] (125 g/Ha) and in experiment [9] (125 g/Ha) were 0%, 0% and 10%, respectively.
For `O=C(O)C[n+]1ccc(-c2nc(O)ns2)cc1` [Compound A98], the pest or weed control at 500 g/ha in experiment [1] was 30%; in experiment [2], 20%; in [3] it was 40%; in experiment [4] it was 50%; in experiment [5], 10%; in [6] it was 40%. In addition, the pest or weed control at 500 g/ha is 10% in [7], 70% in experiment [8] and 0% in experiment [9].
`O=C(O)CC[n+]1ccc(-c2ncno2)cc1` [Compound A14]: the pest or weed control at 500 g/ha in experiment [1] amounted to 30%; in experiment [2] it was 60%; in experiment [3] it was 70%; in experiment [4], 100%; in [5], 20%; in [6], 50%. Further, the pest or weed control at 500 g/ha in [7] came to 40%; in experiment [8] it was 50%; in [9] it was 10%.
In the case of `O=S(=O)([O-])C[n+]1ccc(-c2cnns2)cc1` [Compound A3, [4-(thiadiazol-5-yl)pyridin-1-ium-1-yl]methanesulfonate], the pest or weed control at 500 g/ha in experiment [1] was 80%; in [2] it was 80%; in experiment [3], 90%; in [4] it was 100%; in experiment [5], 80%; in experiment [6], 40%. Also, the pest or weed control at 500 g/ha worked out at 50% in [7], 70% in experiment [8] and 20% in [9].
Take `O=C(O)C[n+]1ccc(-c2csnn2)cc1` [Compound A53]: the pest or weed control at 500 g/ha in experiment [1] was found to be 20%; in [2] it was 10%; in [3], 10%; in experiment [4], 10%; in [5] it was 20%; in [6] it was 10%. Besides, the pest or weed control at 500 g/ha in experiment [7], in experiment [8] and in experiment [9] was 0% each time.
